{
  "source": "patent US20240148707A1",
  "about": "“MODULATION OF DRUG-DRUG INTERACTIONS OF VADADUSTAT” (Akebia Therapeutics, Inc., priority 2021, published 2024)",
  "assay_type_in_all_cases": "in vivo, human",
  "key": {"[1]": {"assay": "Phase 1 drug-drug interaction study, vadadustat as perpetrator with digoxin (Arm 1)", "quoted_text": "A Phase 1, open-label, fixed sequence study was conducted in healthy male and female subjects to evaluate vadadustat as a perpetrator of DDIs with digoxin and/or adefovir. […] Subjects remained fasted for at least 4 hours after dosing. Following a 12-day washout period, subjects received vadadustat 600 mg QD beginning on Day 13 for 7 days (Days 13-19)."}, "[2]": {"assay": "[14C]-labeled Compound 1 metabolism and excretion study in healthy adult males", "details": "healthy adult male (6), single oral 650 mg [14C]-labeled Compound 1", "from_the_text": "The urinary excretion rate of this drug and acyl glucuronide is less than 1% of the total radioactivity."}, "[3]": {"assay": "Phase I drug-drug interaction study with cyclosporine (Part 1, Arm 1)", "protocol": "(§1) A phase I, open-label, 2-part study was conducted in healthy male and female subjects to evaluate the potential for interaction of cyclosporine (Part 1, Arm 1), probenecid (Part 1, Arm 2), and rifampin (Part 2) with vadadustat.\nSubjects were randomized in a 1:1 ratio to 1 of 2 dosing sequences (A:B or B:A) to receive vadadustat 300 mg alone and vadadustat 300 mg in combination with oral cyclosporine 500 mg in a crossover design. Study drugs were administered in the morning after at least a 10-hour overnight fast. Subjects remained fasted for at least 4 hours post-dose. • Treatment A: a single oral dose of vadadustat (300 mg) administered as 2×150 mg tablets. • Treatment B: a single oral dose of vadadustat (300 mg) administered as 2×150 mg tablets co-administered with a single oral dose of cyclosporine (500 mg) administered as 5×100 mg capsules.\nOn the morning of Day 1, subjects received the first treatment (A or B). Following a 7-day washout, subjects crossed over to Period 2 to receive the second treatment of the dosing sequence (A or B) on Day 8.\nOn each dosing day (Day 1 and Day 8) blood samples for PK analysis were collected up to 48 hours post-dose. Subjects were discharged from the clinical research unit (CRU) on the morning of Day 10, after the final 48-hour post-dose PK sample had been collected. A follow-up phone call was conducted 30 days±2 days after the final dose."}, "[4]": {"assay": "Phase I drug-drug interaction study with probenecid (Part 1, Arm 2)", "details": "for increase in exposure (AUC): administered with multiple doses of probenecid vs vadadustat alone", "protocol": "as §1\nOn the morning of Day 1, subjects received a single oral dose of vadadustat (300 mg) as 2×150 mg tablets after at least a 10-hour overnight fast and remained fasted for at least 4 hours post-dose. Following a 2-day washout (Days 1 to 2), subjects received 1 oral probenecid 500 mg tablet Q12 h for 4 days (Days 3 to 6). On days that probenecid was administered alone (Days 3, 4, and 6), probenecid was administered in a fasted state 1 hour prior to a standard breakfast and 1 hour prior to an evening meal or snack. On Day 5, probenecid was co-administered with a single dose of vadadustat (300 mg as 2×150 mg tablets) following at least a 10-hour fast. Subjects remained fasted for at least 4 hours after dosing.\nOn days vadadustat was administered (Day 1 and Day 5), blood samples for PK analysis were collected up to 48 hours postdose. In addition, on vadadustat dosing days, pooled urine samples were collected up to 24 hours post-dose. Subjects were discharged from the CRU on the morning of Day 7, after the final 48-hour post-dose PK sample had been collected. A follow-up phone call was conducted 30 days±2 days after the final dose."}, "[5]": {"assay": "Phase 1 drug-drug interaction study, vadadustat as perpetrator with adefovir (Arm 2)", "details": "for AUC(0-inf) / AUC(0-t) / Cmax: both sexes, human, plasma", "protocol": "A Phase 1, open-label, fixed sequence study was conducted in healthy male and female subjects to evaluate vadadustat as a perpetrator of DDIs with digoxin and/or adefovir.\nOn the morning of Day 1, subjects received a single oral dose of adefovir 10 mg after at least a 10-hour overnight fast. Subjects remained fasted for at least 4 hours after dosing. Following a 3-day washout period, subjects received vadadustat 600 mg QD beginning on Day 4 for 5 days (Days 4-8). When administered alone, vadadustat was administered in the morning at least 30 minutes prior to breakfast. On Day 7 subjects received their morning dose of vadadustat 600 mg along with a single oral dose of adefovir 10 mg after at least a 10-hour overnight fast."}, "[6]": {"details": "digoxin 0.5 mg single dose with vadadustat 600 mg QD (Day 16)"}, "[7]": {"details": "digoxin 0.5 mg with vs without vadadustat 600 mg QD"}, "[8]": {"details": "vadadustat 300 mg + cyclosporine 500 mg, single oral doses, fasted"}, "[9]": {"details": "vadadustat 300 mg alone, single oral dose, fasted"}, "[10]": {"details": "vadadustat 300 mg with vs without cyclosporine 500 mg"}, "[11]": {"details": "vadadustat 300 mg single dose + probenecid 500 mg Q12h (multiple doses), fasted"}, "[12]": {"details": "vadadustat 300 mg with vs without probenecid 500 mg Q12h"}, "[13]": {"details": "adefovir 10 mg with vs without vadadustat 600 mg QD"}},
  "note": "Read-outs that look alike come from different tables or passages of the source.",
  "data": [
    {"smiles": "C[C@H]1O[C@@H](O[C@H]2[C@@H](O)C[C@H](O[C@H]3[C@@H](O)C[C@H](O[C@H]4CC[C@@]5(C)[C@H](CC[C@@H]6[C@@H]5C[C@@H](O)[C@]5(C)[C@@H](C7=CC(=O)OC7)CC[C@]65O)C4)O[C@@H]3C)O[C@@H]2C)C[C@H](O)[C@@H]1O", "note": "[digoxin]", "values": [
      {"measurement": "AUC(0-t)", "setting": "[1]; both sexes, human, plasma, oral, digoxin 0.5 mg single dose with vadadustat 600 mg QD (Day 16), read-out: AUClast, geometric LSM, Treatment V + D", "result": 31.7, "unit": "ng·h/mL"},
      {"measurement": "AUC(0-inf)", "setting": "[1]; both sexes, human, plasma, digoxin 0.5 mg alone, single oral dose, fasted, read-out: AUCinf, geometric LSM, Treatment D", "result": 36.3, "unit": "ng·h/mL"},
      {"measurement": "AUC(0-t)", "setting": "[1]; both sexes, human, plasma, digoxin 0.5 mg alone, single oral dose, fasted, read-out: AUClast, geometric LSM, Treatment D", "result": 34.6, "unit": "ng·h/mL"},
      {"measurement": "Cmax, geometric LSM, Treatment D", "setting": "[1]; digoxin 0.5 mg alone, single oral dose, fasted", "result": 2.46, "unit": "ng/mL"},
      {"measurement": "AUCinf, geometric LSM, Treatment V + D", "setting": "[1]; [6]", "result": 33.19, "unit": "ng·h/mL"},
      {"measurement": "Cmax, geometric LSM, Treatment V + D", "setting": "[1]; [6]", "result": 1.64, "unit": "ng/mL"},
      {"measurement": "AUCinf, Ratio (V + D)/D", "setting": "[1]; [7]", "result": 91.37, "unit": "%"},
      {"measurement": "AUClast, Ratio (V + D)/D", "setting": "[1]; [7]", "result": 91.49, "unit": "%"},
      {"measurement": "Cmax, Ratio (V + D)/D", "setting": "[1]; [7]", "result": 66.92, "unit": "%"},
      {"measurement": "decrease of digoxin Cmax", "setting": "[1]; digoxin and vadadustat coadministered vs digoxin alone", "result": "~35", "unit": "%"},
      {"measurement": "total exposure (AUClast and AUCinf) to digoxin", "setting": "[1]; digoxin following multiple doses of vadadustat vs digoxin alone", "result": "unchanged"}
    ]},
    {"smiles": "O=C(O)CNC(=O)c1ncc(-c2cccc(Cl)c2)cc1O[C@@H]1O[C@H](C(=O)O)[C@@H](O)[C@H](O)[C@H]1O", "note": "[Vadadustat-O-Glucuronide]", "values": [
      {"measurement": "share of the total radioactivity (AUC0-∞) in plasma", "setting": "[2]", "result": "about 15%"},
      {"measurement": "AUCinf, geometric LSM, Treatment V + C", "setting": "[3]; [8]", "result": 39210, "unit": "ng·h/mL"},
      {"measurement": "AUClast, geometric LSM, Treatment V + C", "setting": "[3]; [8]", "result": 38130, "unit": "ng·h/mL"},
      {"measurement": "Cmax, geometric LSM, Treatment V + C", "setting": "[3]; [8]", "result": 3900, "unit": "ng/mL"},
      {"measurement": "AUCinf, geometric LSM, Treatment V", "setting": "[3]; [9]", "result": 34480, "unit": "ng·h/mL"},
      {"measurement": "AUClast, geometric LSM, Treatment V", "setting": "[3]; [9]", "result": 33430, "unit": "ng·h/mL"},
      {"measurement": "Cmax, geometric LSM, Treatment V", "setting": "[3]; [9]", "result": 4500, "unit": "ng/mL"},
      {"measurement": "AUCinf, Ratio (V + C)/V", "setting": "[3]; [10]", "result": 113.74, "unit": "%"},
      {"measurement": "AUClast, Ratio (V + C)/V", "setting": "[3]; [10]", "result": 114.04, "unit": "%"},
      {"measurement": "Cmax, Ratio (V + C)/V", "setting": "[3]; [10]", "result": 86.63, "unit": "%"},
      {"measurement": "changes in the Cmax and AUC values", "setting": "[3]; vadadustat in combination with cyclosporine", "result": "no clinically relevant changes"},
      {"measurement": "increase in exposure (AUC)", "setting": "[4]; listed as vadadustat-O-glucuronide", "result": "about 2 fold"},
      {"measurement": "increase in exposure (AUC)", "setting": "[4]; listed as vadadustat-Oglucuronide", "result": "~2", "unit": "fold"},
      {"measurement": "change of Cmax values", "setting": "[4]; in combination with probenecid", "result": "relatively unchanged"},
      {"measurement": "urinary excretion", "setting": "[4]; in combination with probenecid", "result": "decreased"},
      {"measurement": "AUCinf, geometric LSM, Treatment V", "setting": "[4]; [9]", "result": 38240, "unit": "ng·h/mL"},
      {"measurement": "AUClast, geometric LSM, Treatment V", "setting": "[4]; [9]", "result": 37410, "unit": "ng·h/mL"},
      {"measurement": "Cmax, geometric LSM, Treatment V", "setting": "[4]; [9]", "result": 5590, "unit": "ng/mL"},
      {"measurement": "AUCinf, geometric LSM, Treatment V + P", "setting": "[4]; [11]", "result": 86580, "unit": "ng·h/mL"},
      {"measurement": "AUClast, geometric LSM, Treatment V + P", "setting": "[4]; [11]", "result": 83810, "unit": "ng·h/mL"},
      {"measurement": "Cmax, geometric LSM, Treatment V + P", "setting": "[4]; [11]", "result": 6170, "unit": "ng/mL"},
      {"measurement": "AUCinf, Ratio (V + P)/V", "setting": "[4]; [12]", "result": 226.39, "unit": "%"},
      {"measurement": "AUClast, Ratio (V + P)/V", "setting": "[4]; [12]", "result": 224.05, "unit": "%"},
      {"measurement": "Cmax, Ratio (V + P)/V", "setting": "[4]; [12]", "result": 110.38, "unit": "%"}
    ]},
    {"smiles": "Nc1ncnc2c1ncn2CCOCP(=O)(O)O", "note": "[adefovir]", "values": [
      {"measurement": "AUCinf, Ratio (V + A)/A", "setting": "[5]; [13]", "result": 114.70, "unit": "%"},
      {"measurement": "AUClast, Ratio (V + A)/A", "setting": "[5]; [13]", "result": 114.74, "unit": "%"},
      {"measurement": "Cmax, Ratio (V + A)/A", "setting": "[5]; [13]", "result": 95.15, "unit": "%"},
      {"measurement": "systemic exposure to adefovir", "setting": "[5]; adefovir administered with vadadustat vs adefovir alone", "result": "relatively unchanged"},
      {"measurement": "AUC(0-inf)", "setting": "[5]; oral, adefovir 10 mg single dose with vadadustat 600 mg QD (Day 7), read-out: AUCinf, geometric LSM, Treatment V + A", "result": 230, "unit": "ng·h/mL"},
      {"measurement": "AUC(0-t)", "setting": "[5]; oral, adefovir 10 mg single dose with vadadustat 600 mg QD (Day 7), read-out: AUClast, geometric LSM, Treatment V + A", "result": 227, "unit": "ng·h/mL"},
      {"measurement": "Cmax", "setting": "[5]; oral, adefovir 10 mg single dose with vadadustat 600 mg QD (Day 7), read-out: Cmax, geometric LSM, Treatment V + A", "result": 17.1, "unit": "ng/mL"},
      {"measurement": "AUC(0-inf)", "setting": "[5]; adefovir 10 mg alone, single oral dose, fasted, read-out: AUCinf, geometric LSM, Treatment A", "result": 201, "unit": "ng·h/mL"},
      {"measurement": "AUC(0-t)", "setting": "[5]; adefovir 10 mg alone, single oral dose, fasted, read-out: AUClast, geometric LSM, Treatment A", "result": 198, "unit": "ng·h/mL"},
      {"measurement": "Cmax", "setting": "[5]; adefovir 10 mg alone, single oral dose, fasted, read-out: Cmax, geometric LSM, Treatment A", "result": 17.9, "unit": "ng/mL"}
    ]}
  ]
}
